# Measurements taken from patent US20130046098A1, “KINASE INHIBITORS” (THE UNIVERSITY OF MANCHESTER, priority 2009, published 2013).
# Entries after “also recorded” stand apart in the source; their conditions may differ.
# How the values were obtained:
# [1] = system: GEF16 transfected NIH3T3 cells; assay: Cell proliferation assay (Celltiter Aq96); format: cell-based, mouse; details: 10 μM, FIG. 3B, P>0.05
# Description: FIG. 1D is a bar chart showing the results of Cell AQ^96 assessment of the growth of GEF16 and vector transfected cells seeded in a 96 well plate at 1×10^3 cells per well. These were incubated for 3 days followed by addition of reagent to determine the starting point for the assay. 10 μM of either Y27632 or DMSO were then added to wells containing both cell types and Cell AQ^96 absorbance measured at 6, 8 and 10 days. At day 3 cells were 100% confluent which was determined by phase contrast visual inspection of the cultures at ×20 magnification;
# Cell proliferation was investigated using Celltiter Aq^96 reagent (Promega, Southampton, UK) according to the manufacturer's protocol. Cells were seeded into a 96-well plate at a density of 1×10^3 cells/well allowing 3 wells per data point and allowed to attach for a set period. Following this, the initial starting point 490 nm absorbance was determined by adding 20 μl of Aq^96 reagent to each well and incubating for 4 h at 37° C. in 5% CO2 (96-well plate reader, Dynex Technologies, West Sussex, UK). The various compounds (Y27632 or compounds of the invention) or DMSO control were then added to duplicate wells and the absorbance determined in the same way at the time points indicated. Each data set shown is representative of three separate experiments.
# [2] = system: single transformed colony derived GEF16 NIH3T3 cells; assay: Growth of cell populations derived from single GEF16 transformed colonies; format: cell-based, mouse
# Description: (§1) FIG. 5 illustrates that the growth suppressive effects of YA1 on single transformed colony derived GEF16 NIH3T3 cells and polyclonal Ras transformed NIH3T3 cells are more pronounced when these are co-cultured with non-transformed cells. In FIG. 5A single transformed colonies were picked from 10 day cultures of GEF16 polyclonal NIH3T3 cells and expanded. These cells were then seeded at 2.0×10^5 cells per 30 mm dish and treated with 10 μM of YA1 or DMSO control either immediately or following 10 days in culture. Duplicate wells were harvested for flow cytometry. In FIG. 5B a total of 2×10^5 cells per well were plated consisting of increasing numbers of non-transformed vector cells co-cultured with decreasing numbers of single transformed colony derived GEF16 cells. These were treated with 10 μM of either YA1 or DMSO for 10 days. In producing the results shown in FIG. 5C the same co-culture experiment described in connection with FIG. 5B was carried out substituting polyclonal Ras transformed NIH3T3 cells for GEF16 transformed cells.
# Single transformed colonies were picked from GEF16 polyclonal NIH3T3 cells and expanded according to the methods described above. Expanded cell populations were plated and a compound of the invention (YA1) added either immediately or after 10 days when the cells were post-confluent.
# [3] = system: polyclonal Ras transformed NIH3T3 cells; assay: Co-culture of Ras transformed cells with non-transformed cells / Ras colony formation; format: cell-based, mouse
# Description: as §1, with “In producing the results shown in FIG. 5C the same co-culture experiment described in connection with FIG. 5B was carried out substituting polyclonal Ras transformed NIH3T3 cells for GEF16 transformed cells.” left out
# Transformed cell populations were produced by transfection with constructs causing cellular expression of GEF16 or Ras as follows. The full-length GEF16 open reading frame (Accession NM_014448) was PCR amplified, sequence verified and subcloned into the mammalian expression vector pCMVTag (Invitrogen Ltd., Paisley, UK) to produce a construct pCMVTag-GEF16 cDNA. […]
# ROCK1 = ROCK1 (Homo sapiens, UniProt Q13464); assay: SelectScreen additional single point analysis; details: 10 μM
# Aurora A = biological target: T1, Aurora A (Homo sapiens, UniProt O14965); assay: SelectScreen in vitro kinase profiling, single point
# T1 sequence (O14965 1-403): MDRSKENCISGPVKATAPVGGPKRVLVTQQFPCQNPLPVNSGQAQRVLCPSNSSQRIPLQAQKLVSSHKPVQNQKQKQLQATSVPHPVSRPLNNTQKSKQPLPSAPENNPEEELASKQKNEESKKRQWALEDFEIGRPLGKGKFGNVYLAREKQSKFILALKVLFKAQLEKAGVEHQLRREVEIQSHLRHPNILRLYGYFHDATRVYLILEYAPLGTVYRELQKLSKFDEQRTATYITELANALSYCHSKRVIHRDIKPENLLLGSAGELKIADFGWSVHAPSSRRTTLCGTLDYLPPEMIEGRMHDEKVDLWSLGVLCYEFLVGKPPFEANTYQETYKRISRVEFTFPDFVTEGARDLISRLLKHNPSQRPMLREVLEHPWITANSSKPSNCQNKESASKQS
# Sequence of ROCK1 (Q13464 whole entry): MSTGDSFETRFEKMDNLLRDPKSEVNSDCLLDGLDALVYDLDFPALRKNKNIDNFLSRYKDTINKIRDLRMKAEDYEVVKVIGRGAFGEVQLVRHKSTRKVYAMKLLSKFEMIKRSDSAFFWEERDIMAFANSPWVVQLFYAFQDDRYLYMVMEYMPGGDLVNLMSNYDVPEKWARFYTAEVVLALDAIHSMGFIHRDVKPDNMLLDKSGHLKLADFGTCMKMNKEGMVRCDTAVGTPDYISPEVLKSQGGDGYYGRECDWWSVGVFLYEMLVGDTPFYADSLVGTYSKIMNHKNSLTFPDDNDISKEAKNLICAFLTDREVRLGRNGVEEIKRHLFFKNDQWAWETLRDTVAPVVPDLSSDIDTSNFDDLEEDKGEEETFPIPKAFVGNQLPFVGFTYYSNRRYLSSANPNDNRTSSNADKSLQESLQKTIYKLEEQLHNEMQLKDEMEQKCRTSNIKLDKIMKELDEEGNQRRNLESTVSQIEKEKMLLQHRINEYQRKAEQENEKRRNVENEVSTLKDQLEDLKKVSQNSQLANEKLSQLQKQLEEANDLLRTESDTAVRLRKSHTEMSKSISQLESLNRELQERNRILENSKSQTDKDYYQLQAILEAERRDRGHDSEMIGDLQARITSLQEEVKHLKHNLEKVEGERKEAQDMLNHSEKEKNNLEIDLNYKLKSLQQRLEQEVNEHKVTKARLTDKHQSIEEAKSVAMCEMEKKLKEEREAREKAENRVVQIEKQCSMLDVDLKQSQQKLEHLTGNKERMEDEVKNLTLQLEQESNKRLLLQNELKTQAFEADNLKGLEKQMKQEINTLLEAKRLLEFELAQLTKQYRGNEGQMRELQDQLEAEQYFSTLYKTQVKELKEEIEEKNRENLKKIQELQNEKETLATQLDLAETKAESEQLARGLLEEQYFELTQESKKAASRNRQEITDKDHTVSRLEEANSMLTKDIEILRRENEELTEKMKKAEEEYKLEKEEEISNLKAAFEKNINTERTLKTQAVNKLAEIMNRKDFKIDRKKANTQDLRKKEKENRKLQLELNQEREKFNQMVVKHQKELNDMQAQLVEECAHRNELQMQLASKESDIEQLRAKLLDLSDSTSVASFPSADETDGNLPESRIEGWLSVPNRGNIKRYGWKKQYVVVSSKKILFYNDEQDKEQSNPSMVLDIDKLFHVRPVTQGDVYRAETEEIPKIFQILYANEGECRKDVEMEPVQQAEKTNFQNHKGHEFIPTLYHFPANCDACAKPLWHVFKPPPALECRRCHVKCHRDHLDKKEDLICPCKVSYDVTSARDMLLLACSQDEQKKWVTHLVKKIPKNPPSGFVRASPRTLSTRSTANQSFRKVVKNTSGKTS
smiles,measurement,setting,value
"CC(C)(C)OC(=O)NCc1ccc(C(=O)Nc2ccncc2)cc1 [YA1, 4-(Pyridin-4-ylcarbamoyl)benzylcarbamic acid tert-butyl ester]",growth rates of sub-confluent GEF16 polyclonal cells versus DMSO control,[1],no detectable difference in growth rates
same,"effect on single colony derived GEF16 cells, added to post-confluent cultures","[2]; 10 μM, added after 10 days in culture",no discernible effect when compared to controls
same,"saturation density of single colony derived GEF16 cells, added to low density cultures","[2]; 10 μM, added immediately",modest effect when added to low density cultures
same,effect on single colony derived GEF16 transformed cells grown in the absence of non-transformed cells,[2]; FIG. 5A,little or no effect
same,growth suppression / colony formation of Ras transformed NIH3T3 cells,"[3]; 10 μM, 10 days, co-culture with non-transformed cells",same growth suppressive effects on Ras transformed NIH3T3 cell colonies as with GEF16 transformed cells; also recorded: highly effective at preventing the formation of Ras transformed NIH3T3 colonies
same,contact inhibition and polarity of Ras transformed cells (phase contrast images),[3]; YA1 treated,regain both contact inhibition and polarity
same,activity against ROCK1,ROCK1,less activity against ROCKs than YA2
same,activity against Aurora A,"Aurora A; additional single point analysis, 10 μM","significant activity against p38, HGK and Aurora A"
same,inhibition at 10 µM,Aurora A; read-out: inhibitory activity against Aurora A,44%
